Measured values as given in US20190055563A1, “POLYMERASE Q AS A TARGET IN HR-DEFICIENT CANCERS” (DANA-FARBER CANCER INSTITUTE, INC., priority 2015, published 2019).

Legend:
[1] = tested on: A2780-shFANCD2 cells; assay: Clonogenic survival of HR-deficient cells with POLQ depletion; assay type: cell-based, human; details: A2780-shFANCD2 with shRNA targeting POLQ
Description: (§1) For assessing cellular cytotoxicity, cells were seeded into 96-well plates at a density of 1000 cells/well. Cytotoxic drugs were serially diluted in media and added to the wells. At 72 hours, CellTiter-Glo reagent (Promega) was added to the wells and the plates were scanned using a luminescence microplate reader. Survival at each drug concentration was plotted as a percentage of the survival in drug-free media. Each data point on the graph represents the average of three measurements, and the error bars represent the standard deviation. For clonogenic survival, 1000 cells/well were seeded into six-well plates and treated with cytotoxic drugs the next day. For MMC and PARPi, cells were treated continuously with indicated drug concentrations. For CDDP, cells were treated for 24 hours and cultured for 14 days in drug-free media. Colony formation was scored 14 days after treatment using 0.5% (w/v) crystal violet in methanol. Survival curves were expressed as a percentage ±s.e.m. over three independent experiments of colonies formed relative to the DMSO-treated control.

[2] = tested on: A2780 cells; assay: 3-day survival assay with POLQ inhibition; assay type: cell-based, human; details: 3 days of continuous exposure to ATM inhibitor
Description: as §1

[3] = tested on: 293T cells; assay: 3-day survival assay with POLQ siRNA; assay type: cell-based, human
Description: as §1

[4] = molecular target: recombinant human GST-RAD51 (UniProt Q06609)
[5] = molecular target: T1, Flag-tagged POLQ-1633-Cter (human, UniProt O75417 1633-2590); assay: anti-Flag co-immunoprecipitation from HeLa cells, immunoblot
T1 construct: range 1633-Cter; Stably expressed in HeLa cells; not shown: Flag tag
T1 sequence (looked up): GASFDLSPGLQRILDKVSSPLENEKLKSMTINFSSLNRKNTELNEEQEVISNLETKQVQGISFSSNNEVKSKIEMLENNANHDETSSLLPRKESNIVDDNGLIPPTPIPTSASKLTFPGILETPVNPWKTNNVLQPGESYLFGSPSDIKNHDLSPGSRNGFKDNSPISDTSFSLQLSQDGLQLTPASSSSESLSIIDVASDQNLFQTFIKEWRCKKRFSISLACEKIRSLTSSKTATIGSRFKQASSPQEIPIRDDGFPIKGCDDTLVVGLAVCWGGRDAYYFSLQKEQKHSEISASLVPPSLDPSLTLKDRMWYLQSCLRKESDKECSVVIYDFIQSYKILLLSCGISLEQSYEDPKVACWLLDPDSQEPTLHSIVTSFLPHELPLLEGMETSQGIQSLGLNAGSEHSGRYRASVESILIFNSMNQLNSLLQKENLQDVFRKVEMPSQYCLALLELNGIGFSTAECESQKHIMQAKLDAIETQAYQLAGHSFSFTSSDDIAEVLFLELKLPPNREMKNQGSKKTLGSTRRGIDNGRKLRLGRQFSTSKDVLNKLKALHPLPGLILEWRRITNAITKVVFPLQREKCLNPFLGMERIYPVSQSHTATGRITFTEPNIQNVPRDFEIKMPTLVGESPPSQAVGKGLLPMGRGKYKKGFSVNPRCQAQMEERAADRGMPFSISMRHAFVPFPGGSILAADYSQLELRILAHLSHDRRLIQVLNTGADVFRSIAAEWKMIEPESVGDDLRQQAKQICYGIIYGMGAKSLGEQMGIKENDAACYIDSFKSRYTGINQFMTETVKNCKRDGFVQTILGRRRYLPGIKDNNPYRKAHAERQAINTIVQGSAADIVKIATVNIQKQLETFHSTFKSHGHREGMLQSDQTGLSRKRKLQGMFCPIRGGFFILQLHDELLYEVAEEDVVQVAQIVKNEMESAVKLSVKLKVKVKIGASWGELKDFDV

N.N.[Cl][Pt][Cl] [CDDP, cis-diamminedichloroplatinum(II)]
survival of HR-deficient cells exposed to drug, effect of POLQ depletion [1]: reduced the survival

O=c1cc(-c2cccc3c2Sc2ccccc2S3)oc(N2CCOCC2)c1 [Ku55933]
survival of A2780 cells, effect of POLQ inhibition [2]: reduces the survival

CO[C@@]12[C@H](COC(N)=O)C3=C(C(=O)C(C)=C(N)C3=O)N1C[C@@H]1N[C@@H]12 [MMC, Mitomycin C]
survival of HR-deficient cells exposed to drug, effect of POLQ depletion [1]: reduced the survival | cellular sensitivity to drug after depletion of POLQ [3]: hypersensitivity

purified recombinant POLQ fragment ΔPol2 (amino acids 1 to 1000), wild-type
RAD51-ssDNA nucleofilament assembly [4]: RAD51-ssDNA assembly was reduced by wild-type ΔPol2

B1: endogenous RAD51 (other, UniProt Q06609 2-339, looked up)
chain: AMQMQLEANADTSVEEESFGPQPISRLEQCGINANDVKKLEEAGFHTVEAVAYAPKKELINIKGISEAKADKILAEAAKLVPMGFTTATEFHQRRSEIIQITTGSKELDKLLQGGIETGSITEMFGEFRTGKTQICHTLAVTCQLPIDRGGGEGKAMYIDTEGTFRPERLLAVAERYGLSGSDVLDNVAYARAFNTDHQTQLLYQASAMMVESRYALLIVDSATALYRTDYSGRGELSARQMHLARFLRMLLRLADEFGVAVVITNQVVAQVDGAAMFAADPKKPIGGNIIAHASTTRLYLRKGRGETRICKIYDSPCLPEAEAMFAINADGVGDAKD
notes: Endogenous protein in cell lysates
binding result [5]: no binding
